Here are results for twelve molecules from patent US5409952A, “Heterocyclic compounds: 2-styryl-4H-1-benzopyran-4-ones” (Adir et Compagnie, priority 1990, dated 1995).

The subject of one data set is L1210 cell line. The data set is described as follows: Growth inhibition of cell line L1210 (tritiated thymidine incorporation). The following applies: Mus musculus, L1210, 24 hours, read-out: IC50, concentration that inhibits cell growth by 50%. The class given is cell-based, mice. Here is the method:
The growth of this leukaemia cell line in mice is assessed by the capacity of the cells to incorporate tritiated thymidine. The rate of incorporation is measured 24 hours after the introduction of the test compound into the culture medium.
Table V lists, for each compound, the concentration that inhibits cell growth by 50%.
(In general: Incorporation of labelled thymidine or its analogues reports DNA synthesis.)

Another data set deals with colon C38 adenocarcinoma. The data set can be described thus: Anti-tumour activity on colon C38 adenocarcinoma in vivo. Details: species or system mice. The note with it: colon 38 fragment s.c.; i.p. on 2nd and 4th days after implantation; day 20. The protocol:
After subcutaneous implantation of a fragment of tumour (colon 38) in the axillary region, on the 2nd and 4th days after implantation a solution of the test compound is administered to a group of animals by the intraperitoneal route. On the 20th day the animals are sacrificed and the tumour volume is ascertained.
The % T/C ratio is calculated as follows: [formula]

In the next data set the test system is HL-60 cells. The data set is described as follows: Cell differentiation of HL-60 cells (NBT reduction). In kind it is cell-based, human. The note with it: HL-60, 20 μM, six days. The protocol:
The cell differentiation is determined according to the method of J. M. GALLUP and al. (Proceedings of the Society for Experimental Biology and Medecine, 186, 269-274, 1987).
HL-60 cells (human promyclocyte) (2×10^5 cells/ml) are incubated during six days with the tested compounds. An aliquot (0,5 ml) of cells is than incubated with 0,5 ml of a 0,2% NBT (Nitroblue Tetrazolium) solution and […] of PMA (phorbol ester) for 20 min at 37° C.
Cells are washed with PBS and numbered under microscope, Table VII lists the percentage of cells containing cristals of reduced NBT (i,e, % of positive NBT cells) at the concentration of 20 μM.

The next data set is described as follows: Hypervitamin A toxicity. The note with it: result in words.
The conditions of data set [1]: patent EP 237166; isolated from an alga; cited from earlier work.

On to `COC(=O)c1c(OC)cc2oc(/C=C/c3ccccc3)cc(=O)c2c1OC` [Example 1, Methyl 5,7-Dimethoxy-4-Oxo-2-Styryl-4H-1-Benzopyran-6-Carboxylate], for which the IC50 in the data set on L1210 cell line was 12.5 µM. Moreover, in the data set on colon C38 adenocarcinoma, the T/C % was found to be 56% and the “Tumour volume after 20 days” value was determined as 573 mm3. Also, in the data set with HL-60 cells, the “% of positive NBT cells” value is listed as 52%. For the molecule `COC(=O)c1c(OC)cc2oc(/C=C/c3ccc(OC)c(OC)c3)cc(=O)c2c1OC` [Example 2, Methyl 5,7-Dimethoxy-4-Oxo-2-(3,4-Dimethoxy-Styryl) -4H-1-Benzopyran-6-Carboxylate], the IC50 in the data set with L1210 cell line is 6.4 µM. Besides, in the data set on colon C38 adenocarcinoma, the T/C % is listed as 35% and the “Tumour volume after 20 days” value was 356 mm3. In addition, in the data set on HL-60 cells, the “% of positive NBT cells” value is on record as 85%. On to `COC(=O)c1c(OC)cc2oc(/C=C/c3cc(OC)c(OC)c(OC)c3)cc(=O)c2c1OC` [Example 3, Methyl 5,7-Dimethoxy-4-Oxo-2-(3,4,5-Tri-Methoxystyryl) -4H-1-Benzopyran-6-Carboxylate], for which the IC50 in the data set with L1210 cell line came to 5 µM. In addition, in the data set on HL-60 cells, the “% of positive NBT cells” value turned out to be 59%. As to `COC(=O)c1ccc(/C=C/c2cc(=O)c3c(OC)c(C(=O)OC)c(OC)cc3o2)cc1` [Example 4, Methyl 5,7-Dimethoxy-2-(4-Methoxycarbonyl-Styryl)-4H -1-Benzopyran-6-Carboxylate], the IC50 in the data set with L1210 cell line came out at 12 µM. The same measure, in the same setting: the same measure for `COc1ccc(/C=C/c2cc(=O)c3c(OC)c4ccoc4cc3o2)cc1OC` [Example 7, 4-Methoxy-7-(3,4-Dimethoxystyryl)-5H -Furo[3,2-g]Benzopyran-5-One]: 8.5 µM; for `Cc1c(/C=C/c2ccccc2)oc2c(C)cccc2c1=O` [Example 17, 3,8-Dimethyl-2-Styryl-4H-1-Benzopyran-4-One]: 7.5 µM; for `C=CCc1cccc2c(=O)cc(/C=C/c3ccccc3)oc12` [Example 18, 8-Allyl-2-Styryl-4H-1-Benzopyran-4-One]: 5.85 µM. In the case of `C=CCc1cccc2c(=O)c(C)c(/C=C/c3ccccc3)oc12` [Example 19, 8-Allyl-3-Methyl-2-Styryl-4H-1-Benzopyran-4-One], the IC50 with L1210 cell line was 6.6 µM. Also, in the data set on HL-60 cells, the “% of positive NBT cells” value amounted to 45%. For `C=CCc1cc(OC)cc2c(=O)cc(/C=C/c3ccccc3)oc12` [Example 20, 6-Methoxy-8-Allyl-2-Styryl-4H-1-Benzopyran-4-One], in the data set with L1210 cell line, the IC50 amounted to 3 µM. Same read-out and setting: for `CCCc1cccc2c(=O)cc(/C=C/c3ccccc3)oc12` [Example 21, 8-Propyl-2-Styryl-4H-1-Benzopyran-4-One] the value was 7.25 µM.

For the molecule `CC1=C(/C=C/C(C)=C/C=C/C(C)=C/C(=O)O)C(C)(C)CCC1` [Retinoic acid, reference compound], the IC50 in the data set on L1210 cell line stood at 20.1 µM. Also, in the data set “Hypervitamin A toxicity”, the “Hypervitamin A toxicity” value is “causing hypervitamin A toxicity”. Consider hormo-thamnione, for which the Cytotoxic properties entry in data set [1] was “cytotoxic properties”.
